Measured values as given in patent US7569570B2, “Thienopyrimidines, process for preparing the same and use thereof” (Takeda Pharmaceutical Company Limited, priority 2002, dated 2009).

Compared with `CCNC(=O)Nc1ccc(-c2sc3c(c2CN(C)CCN(C)S(C)(=O)=O)c(=O)n(-c2ccccc2)c(=O)n3Cc2c(F)cccc2F)cc1` [Example 23, N-{2-[{[1-(2,6-difluorobenzyl)-6-(4-{[(ethylamino)carbonyl]amino)phenyl)-2,4-dioxo-3-phenyl-1,2,3,4-tetrahydrothieno[2,3-d]pyrimidin-5-yl]methyl}(methyl)amino]ethyl}-N-methylmethanesulfonamide], `CCNC(=O)Nc1ccc(-c2sc3c(c2CN(C)CCNS(C)(=O)=O)c(=O)n(-c2ccccc2)c(=O)n3Cc2c(F)cccc2F)cc1` [Example 22, N-{2-[{[1-(2,6-difluorobenzyl)-6-(4-{[(ethylamino)carbonyl]amino}phenyl)-2,4-dioxo-3-phenyl-1,2,3,4-tetrahydrothieno[2,3-d]pyrimidin-5-yl]methyl}(methyl)amino]ethyl}methanesulfonamide] is lower in melting point: 216 to 218 °C for the first, 186 to 188 °C for the second.

Compared with `CCNC(=O)Nc1ccc(-c2sc3c(c2CN(C)CCOCCOCC)c(=O)n(-c2ccccc2)c(=O)n3Cc2c(F)cccc2F)cc1` [Example 111, N-[4-(1-(2,6-difluorobenzyl)-5-[{[2-(2-ethoxy)ethoxy]ethyl(methyl)amino}methyl]-2,4-dioxo-3-phenyl-1,2,3,4-tetrahydrothieno[2,3-d]pyrimidin-6-yl)phenyl]-N′-ethylurea], `CCNC(=O)Nc1ccc(-c2sc3c(c2CN(C)CCNC)c(=O)n(-c2ccccc2)c(=O)n3Cc2c(F)cccc2F)cc1` [Example 26, N-{4-[1-(2,6-difluorobenzyl)-5-({methyl[2-(methylamino)ethyl]amino}methyl)-2,4-dioxo-3-phenyl-1,2,3,4-tetrahydrothieno[2,3-d]pyrimidin-6-yl)phenyl}-N′-ethylurea] is lower in melting point: 230 to 233 °C for the first, 192 to 193 °C for the second.

First: CCNC(=O)Nc1ccc(-c2sc3c(c2CN(C)CCOC)c(=O)n(-c2ccc(OCCOC(C)=O)cc2)c(=O)n3Cc2c(F)cccc2F)cc1 [Example 107, 2-[4-(1-(2,6-difluorobenzyl)-6-(4-{[(ethylamino)carbonyl]amino}phenyl)-5-([(2-methoxyethyl(methyl)amino)methyl]-2,4-dioxo-1,2,3,4-tetrahydrothieno[2,3-d]pyrimidin-3(2H)-yl}phenoxy)ethyl acetate]
Second: CCNC(=O)Nc1ccc(-c2sc3c(c2CN(C)CCOC)c(=O)n(-c2ccc(OCCOC)cc2)c(=O)n3Cc2c(F)cccc2F)cc1 [Example 104]
The melting point of the first is lower: 212 to 215 °C for the first, 215 to 218 °C for the second.

First: CCNC(=O)Nc1ccc(-c2sc3c(c2CN(C)CCC(=O)NC)c(=O)n(-c2ccc(OCCOC)cc2)c(=O)n3Cc2c(F)cccc2F)cc1 [Example 31]
Second: CCNC(=O)Nc1ccc(-c2sc3c(c2CN(C)CCC(=O)N(C)C)c(=O)n(-c2ccc(OCCOC)cc2)c(=O)n3Cc2c(F)cccc2F)cc1 [Example 100, 3-[({1-2,6-(difluorobenzyl)-6-(4-{[(ethylamino)carbonyl]amino}phenyl)-3-[4-(2-methoxyethoxy)phenyl]-2,4-dioxo-1,2,3,4-tetrahydrothieno[2,3-d]pyrimidin-5-yl)methyl)(methyl)amino)-N,N-dimethylpropanamide]
The melting point of the first is lower: 163 to 165 °C for the first, 215 to 218 °C for the second.

First: CCNC(=O)Nc1ccc(-c2sc3c(c2CN(C)CCN2CCCC2=O)c(=O)n(-c2ccc(OCCOC)cc2)c(=O)n3Cc2c(F)cccc2F)cc1 [Example 34]
Second: CCNC(=O)Nc1ccc(-c2sc3c(c2CN(C)CCN(C)S(C)(=O)=O)c(=O)n(-c2ccc(OCCOC)cc2)c(=O)n3Cc2c(F)cccc2F)cc1 [Example 38, N-{2-[({1-2,6-(difluorobenzyl)-6-(4-{[(ethylamino)carbonyl]amino}phenyl)-3-[4-(2-methoxyethoxy)phenyl]-2,4-dioxo-1,2,3,4-tetrahydrothieno[2,3-d]pyrimidin-5-yl)methyl)(methyl)amino)ethyl)-N-methylsulfonamide]
The melting point of the first is lower: 175 to 177 °C for the first, 197 to 199 °C for the second.

First: CCNC(=O)Nc1ccc(-c2sc3c(c2CN(C)CCN2CCOC2=O)c(=O)n(-c2ccccc2)c(=O)n3Cc2c(F)cccc2F)cc1 [Example 24]
Second: CCNC(=O)Nc1ccc(-c2sc3c(c2CN(C)CCC(=O)N2CCCC2)c(=O)n(-c2ccccc2)c(=O)n3Cc2c(F)cccc2F)cc1 [Example 94, N-{4-[1-(2,6-difluorobenzyl)-5-({methyl[3-oxo-3-(1-pyrrolidinyl)propyl]amino}methyl)-2,4-dioxo-3-phenyl-1,2,3,4-tetrahydrothieno[2,3-d]pyrimidin-6-yl]phenyl}-N′-ethylurea]
The melting point of the first is lower: 153 to 155 °C for the first, 240 to 244 °C for the second.

Compared with `CCNC(=O)Nc1ccc(-c2sc3c(c2CN(C)C[C@H]2CCCN2S(C)(=O)=O)c(=O)n(-c2ccccc2)c(=O)n3Cc2c(F)cccc2F)cc1` [Example 85], `CCNC(=O)Nc1ccc(-c2sc3c(c2CN(C)CCC(=O)NCCOC)c(=O)n(-c2ccccc2)c(=O)n3Cc2c(F)cccc2F)cc1` [Example 95, 3-[{[1-(2,6-difluorobenzyl)-6-(4-{[(ethylamino)carbonyl]amino}phenyl)-2,4-dioxo-3-phenyl-1,2,3,4-tetrahydrothieno[2,3-d]pyrimidin-5-yl]methyl}(methyl)amino]-N-(2-methoxyethyl)propanamide] is higher in melting point: 189 to 190 °C for the first, 240 to 244 °C for the second.

Compared with `CCNC(=O)Nc1ccc(-c2sc3c(c2CN(C)Cc2ccccn2)c(=O)n(-c2ccc(F)cc2)c(=O)n3Cc2c(F)cccc2F)cc1` [Example 114], `CCNC(=O)Nc1ccc(-c2sc3c(c2CN(C)Cc2ccccn2)c(=O)n(-c2ccccc2)c(=O)n3Cc2c(F)cccc2F)cc1` [Example 113] is lower in melting point: 243 to 244 °C for the first, 203 to 204 °C for the second.

Compared with `CCNC(=O)Nc1ccc(-c2sc3c(c2CNC)c(=O)n(-c2ccc(OCCOC)cc2)c(=O)n3Cc2c(F)cccc2F)cc1` [Example 28, N-(4-{1-(2,6-difluorobenzyl)-3-[4-(2-methoxyethoxy)phenyl]-5-[(methylamino)methyl]-2,4-dioxo-1,2,3,4-tetrahydrothieno[2,3-d]pyrimidin-6-yl}phenyl)-N′-ethylurea], `CCNC(=O)Nc1ccc(-c2sc3c(c2CN(C)CCOC)c(=O)n(-c2ccc(OCCNS(C)(=O)=O)cc2)c(=O)n3Cc2c(F)cccc2F)cc1` [Example 106] is higher in melting point: 203 to 205 °C for the first, 232 to 235 °C for the second.

First: CCNC(=O)Nc1ccc(-c2sc3c(c2CN(C)CC2CCN(C)C2=O)c(=O)n(-c2ccc(F)cc2)c(=O)n3Cc2c(F)cccc2F)cc1 (centres unmarked) [Example 36, N-(4-[1-(2,6-difluorobenzyl)-3-(4-fluorophenyl)-5-({methyl[(1-methyl-2-oxo-3-pyrrolidinyl)methyl]amino}methyl)-2,4-dioxo-1,2,3,4-tetrahydrothieno[2,3-d]pyrimidin-6-yl]phenyl}-N′-ethylurea]
Second: CCNC(=O)Nc1ccc(-c2sc3c(c2CN(C)CCOC)c(=O)n(-c2ccc(NC(=O)NCC)cc2)c(=O)n3Cc2c(F)cccc2F)cc1 [Example 99, N-[4-(3-(4-{(ethylamino)carbonylamino}phenyl)-1-(2,6-difluorobenzyl)-5-{[2-methoxyethyl(methyl)amino]methyl}-2,4-dioxo-1,2,3,4-tetrahydrothieno[2,3-d]pyrimidin-6-yl)phenyl]-N′-ethylurea]
The melting point of the first is lower: 233 to 234 °C for the first, 236 to 239 °C for the second.
